Assay results: ChEMBL document CHEMBL3885881, “DrugMatrix”

Organism: Rattus norvegicus
Experiment: DrugMatrix - Regimen: Daily Repeat
Assay type: toxicity, organism-based, Sprague-Dawley
Set-up: regimen Daily Repeat, gender Male, age 6-8 weeks
Details: in vivo, iv, vehicle 100 % SALINE; for ABSOLUTE BASOPHIL / ABSOLUTE EOSINOPHIL / ABSOLUTE LYMPHOCYTE / ABSOLUTE MONOCYTE / ABSOLUTE SEGMENTED NEUTROPHIL / BASOPHIL / EOSINOPHIL / ERYTHROCYTE COUNT / HEMATOCRIT / HEMOGLOBIN / LEUKOCYTE COUNT / LYMPHOCYTE / MEAN CORPUSCULAR HEMOGLOBIN / MEAN CORPUSCULAR HEMOGLOBIN CONCENTRATION / MEAN CORPUSCULAR VOLUME / MONOCYTE / NEUTROPHIL / NUCLEATED RED BLOOD CELLS / PLATELET COUNT: tissue Blood; for ALANINE AMINOTRANSFERASE / ALBUMIN / ALKALINE PHOSPHATASE / ASPARTATE AMINOTRANSFERASE / BLOOD UREA NITROGEN / CARBON DIOXIDE / CHLORIDE / CHOLESTEROL / CREATINE PHOSPHOKINASE / CREATININE / GLUCOSE / LACTATE DEHYDROGENASE / LIPASE / PHOSPHORUS / POTASSIUM / SODIUM / TOTAL BILIRUBIN / TOTAL PROTEIN / URIC ACID: tissue Plasma
[1] = 0 mg/kg, 72 h, dose level Control, time 3 day
[2] = 0 mg/kg, 120 h, dose level Control, time 5 day
[3] = […], 72 h, dose 0.0033 mg/Kg, dose level Low, time 3 day
[4] = […], 72 h, dose 0.033 mg/Kg, dose level High, time 3 day

COc1cc2c3cc1Oc1cc(ccc1O)C[C@@H]1c4c(cc(OC)c(O)c4Oc4ccc(cc4)C[C@@H]3N(C)CC2)CC[N+]1(C)C.[Cl-]
ABSOLUTE BASOPHIL [1]: 0 CELLS/uL
ABSOLUTE EOSINOPHIL [1]: 0 CELLS/uL
ABSOLUTE LYMPHOCYTE [1]: 11636.83 CELLS/uL
ABSOLUTE MONOCYTE [1]: 159 CELLS/uL
ABSOLUTE SEGMENTED NEUTROPHIL [1]: 1170.83 CELLS/uL
BASOPHIL [1]: 0%
EOSINOPHIL [1]: 0%
ERYTHROCYTE COUNT [1]: 5.46 x10E6/uL
HEMATOCRIT [1]: 34.05%
HEMOGLOBIN [1]: 13.58 G/DL
LEUKOCYTE COUNT [1]: 12.97 x10E3/uL
LYMPHOCYTE [1]: 89.67%
MEAN CORPUSCULAR HEMOGLOBIN [1]: 24.87 pg
MEAN CORPUSCULAR HEMOGLOBIN CONCENTRATION [1]: 39.9 G/DL
MEAN CORPUSCULAR VOLUME [1]: 62.3 fL
MONOCYTE [1]: 1.33%
NEUTROPHIL [1]: 9%
NUCLEATED RED BLOOD CELLS [1]: 0.17 /100WBC
PLATELET COUNT [1]: 824 x10E3/uL
ALANINE AMINOTRANSFERASE [1]: 64.83 u/L
ALBUMIN [1]: 4.08 G/DL
ALKALINE PHOSPHATASE [1]: 421 u/L
ASPARTATE AMINOTRANSFERASE [1]: 116.83 u/L
BLOOD UREA NITROGEN [1]: 16.83 mg/dL
CARBON DIOXIDE [1]: 28 mmol/L
CHLORIDE [1]: 101.33 MEQ/L
CHOLESTEROL [1]: 74.17 mg/dL
CREATINE PHOSPHOKINASE [1]: 748.5 u/L
CREATININE [1]: 0.22 mg/dL
GLUCOSE [1]: 152.83 mg/dL
LACTATE DEHYDROGENASE [1]: 578.5 u/L
LIPASE [1]: 9.83 u/L
PHOSPHORUS [1]: 11.63 mg/dL
POTASSIUM [1]: 5.93 MEQ/L
SODIUM [1]: 142.1 MEQ/L
TOTAL BILIRUBIN [1]: 0.17 mg/dL
TOTAL PROTEIN [1]: 5.77 G/DL
URIC ACID [1]: 1.43 mg/dL
ABSOLUTE BASOPHIL [2]: 0 CELLS/uL
ABSOLUTE EOSINOPHIL [2]: 159.17 CELLS/uL
ABSOLUTE LYMPHOCYTE [2]: 12267.5 CELLS/uL
ABSOLUTE MONOCYTE [2]: 30 CELLS/uL
ABSOLUTE SEGMENTED NEUTROPHIL [2]: 1160 CELLS/uL
BASOPHIL [2]: 0%
EOSINOPHIL [2]: 1.17%
ERYTHROCYTE COUNT [2]: 5.52 x10E6/uL
HEMATOCRIT [2]: 34.3%
HEMOGLOBIN [2]: 13.73 G/DL
LEUKOCYTE COUNT [2]: 13.62 x10E3/uL
LYMPHOCYTE [2]: 90.5%
MEAN CORPUSCULAR HEMOGLOBIN [2]: 24.92 pg
MEAN CORPUSCULAR HEMOGLOBIN CONCENTRATION [2]: 40.07 G/DL
MEAN CORPUSCULAR VOLUME [2]: 62.17 fL
MONOCYTE [2]: 0.17%
NEUTROPHIL [2]: 8.17%
NUCLEATED RED BLOOD CELLS [2]: 0.17 /100WBC
PLATELET COUNT [2]: 1261.83 x10E3/uL
ALANINE AMINOTRANSFERASE [2]: 58.67 u/L
ALBUMIN [2]: 4.15 G/DL
ALKALINE PHOSPHATASE [2]: 364.67 u/L
ASPARTATE AMINOTRANSFERASE [2]: 105.33 u/L
BLOOD UREA NITROGEN [2]: 17.67 mg/dL
CARBON DIOXIDE [2]: 26.5 mmol/L
CHLORIDE [2]: 101.67 MEQ/L
CHOLESTEROL [2]: 63 mg/dL
CREATINE PHOSPHOKINASE [2]: 480.67 u/L
CREATININE [2]: 0.17 mg/dL
GLUCOSE [2]: 144.67 mg/dL
LACTATE DEHYDROGENASE [2]: 540.33 u/L
LIPASE [2]: 10.33 u/L
PHOSPHORUS [2]: 11.52 mg/dL
POTASSIUM [2]: 6.12 MEQ/L
SODIUM [2]: 142.45 MEQ/L
TOTAL BILIRUBIN [2]: 0.18 mg/dL
TOTAL PROTEIN [2]: 5.73 G/DL
URIC ACID [2]: 1.48 mg/dL
ABSOLUTE BASOPHIL [3]: 0 CELLS/uL
ABSOLUTE EOSINOPHIL [3]: 38.67 CELLS/uL
ABSOLUTE LYMPHOCYTE [3]: 9113.67 CELLS/uL
ABSOLUTE MONOCYTE [3]: 101 CELLS/uL
ABSOLUTE SEGMENTED NEUTROPHIL [3]: 846.67 CELLS/uL
BASOPHIL [3]: 0%
EOSINOPHIL [3]: 0.33%
ERYTHROCYTE COUNT [3]: 5.25 x10E6/uL
HEMATOCRIT [3]: 31.97%
HEMOGLOBIN [3]: 12.93 G/DL
LEUKOCYTE COUNT [3]: 10.1 x10E3/uL
LYMPHOCYTE [3]: 90.33%
MEAN CORPUSCULAR HEMOGLOBIN [3]: 24.73 pg
MEAN CORPUSCULAR HEMOGLOBIN CONCENTRATION [3]: 40.53 G/DL
MEAN CORPUSCULAR VOLUME [3]: 60.97 fL
MONOCYTE [3]: 1%
NEUTROPHIL [3]: 8.33%
NUCLEATED RED BLOOD CELLS [3]: 0 /100WBC
PLATELET COUNT [3]: 798.67 x10E3/uL
ABSOLUTE BASOPHIL [4]: 0 CELLS/uL
ABSOLUTE EOSINOPHIL [4]: 61.33 CELLS/uL
ABSOLUTE LYMPHOCYTE [4]: 18023 CELLS/uL
ABSOLUTE MONOCYTE [4]: 62 CELLS/uL
ABSOLUTE SEGMENTED NEUTROPHIL [4]: 687 CELLS/uL
BASOPHIL [4]: 0%
EOSINOPHIL [4]: 0.33%
ERYTHROCYTE COUNT [4]: 5 x10E6/uL
HEMATOCRIT [4]: 31.67%
HEMOGLOBIN [4]: 13 G/DL
LEUKOCYTE COUNT [4]: 18.83 x10E3/uL
LYMPHOCYTE [4]: 95.67%
MEAN CORPUSCULAR HEMOGLOBIN [4]: 26 pg
MEAN CORPUSCULAR HEMOGLOBIN CONCENTRATION [4]: 41.03 G/DL
MEAN CORPUSCULAR VOLUME [4]: 63.33 fL
MONOCYTE [4]: 0.33%
NEUTROPHIL [4]: 3.67%
NUCLEATED RED BLOOD CELLS [4]: 0 /100WBC
PLATELET COUNT [4]: 1148.67 x10E3/uL
